# Results: PMC8121435, “Cork-in-bottle mechanism of inhibitor binding to mammalian complex I” (Science Advances, 2021)
# “And” between values parts separate entries of the source, which are not always exact repeats. Equal values may be shown once.
# What was measured:
# Assay type in all cases: biochemical
# [1] = molecular target: T1, complex I in mitochondrial membranes (Mus musculus, UniProt P03888+Q91WD5+Q9DC70); test: NADH oxidation in mouse mitochondrial membranes; details: M. musculus membranes 20 μg ml−1; ± SE
# T1 construct: from tissue; host or cells: mouse (C57BL/6) heart mitochondria
# Procedure: (§1) All catalytic activity assays were conducted at 32°C in 96-well plates using a Molecular Devices Spectramax 384 plus plate reader. Catalysis was initiated by addition of 200 μM NADH and monitored at 340 and 380 nm (ε340–380 = 4.81 mM^−1 cm^−1). Linear rates were measured for all assays, inhibitors were added from dimethyl sulfoxide stock solutions as required, and inhibitor-insensitive rates (using either 1 μM piericidin A or 1.4 μM IACS-2858) were subtracted from each measured rate. Membrane samples were prepared as described previously ([17], [20], [59], [60]), diluted to 20 μg ml^−1 in 10 mM tris-SO4 (pH 7.5) and 250 mM sucrose, and supplemented with 3 μM horse heart cytochrome c (except for P. denitrificans, for which the activity is unaffected by the addition). Mouse, bovine, and yeast (Y. lipolytica) complex I were purified as described previously ([17], [20], [59]); diluted to 0.5 nM in 20 mM tris-HCl (pH 7.5), 0.15% asolectin, and 0.15% CHAPS; and assayed using either 200 μM dQ or 200 μM ubiquinone-1 (Sigma-Aldrich). Complex I was purified from P. denitrificans strain Pd1222 ([61]) and provided by O. D. Jarman (MRC Mitochondrial Biology Unit, University of Cambridge); it was assayed likewise but in 10 mM MES-HCl (pH 6.5), 25 mM NaCl, and 2 mM CaCl2. […]
# [2] = molecular target: T2, complex I in mitochondrial membranes (Yarrowia lipolytica, UniProt Q9B6E8+Q9UUT7+Q9UUU1); test: NADH oxidation in Y. lipolytica mitochondrial membranes
# T2 sequence (Q9B6E8 1-341): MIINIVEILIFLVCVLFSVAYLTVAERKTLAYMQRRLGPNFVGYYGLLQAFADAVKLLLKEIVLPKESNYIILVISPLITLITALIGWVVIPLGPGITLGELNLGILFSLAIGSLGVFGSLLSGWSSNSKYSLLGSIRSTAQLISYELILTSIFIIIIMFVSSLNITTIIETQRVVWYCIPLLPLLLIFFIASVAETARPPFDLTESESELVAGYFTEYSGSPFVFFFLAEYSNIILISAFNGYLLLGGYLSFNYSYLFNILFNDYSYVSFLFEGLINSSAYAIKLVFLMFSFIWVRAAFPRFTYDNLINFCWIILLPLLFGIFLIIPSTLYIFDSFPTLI
# T2 sequence (Q9UUU1 22-466): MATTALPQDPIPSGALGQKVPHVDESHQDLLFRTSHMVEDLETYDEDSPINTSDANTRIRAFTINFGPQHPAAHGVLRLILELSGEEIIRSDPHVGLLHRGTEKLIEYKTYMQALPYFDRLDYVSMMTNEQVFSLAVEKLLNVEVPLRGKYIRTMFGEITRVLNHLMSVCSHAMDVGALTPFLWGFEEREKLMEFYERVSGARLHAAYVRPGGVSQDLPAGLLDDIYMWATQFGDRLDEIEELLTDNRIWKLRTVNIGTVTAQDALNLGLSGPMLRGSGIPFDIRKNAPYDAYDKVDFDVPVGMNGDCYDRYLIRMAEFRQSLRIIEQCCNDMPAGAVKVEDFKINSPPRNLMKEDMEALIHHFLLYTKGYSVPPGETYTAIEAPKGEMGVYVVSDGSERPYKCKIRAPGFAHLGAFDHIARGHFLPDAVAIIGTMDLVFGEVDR
# T2 sequence (Q9UUT7 28-210): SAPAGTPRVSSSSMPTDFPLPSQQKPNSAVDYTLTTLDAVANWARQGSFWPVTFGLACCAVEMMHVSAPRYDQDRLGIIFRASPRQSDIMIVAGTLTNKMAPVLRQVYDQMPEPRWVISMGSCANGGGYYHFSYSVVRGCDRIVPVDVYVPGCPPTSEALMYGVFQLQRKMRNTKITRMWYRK
# Procedure: as §1
# mouse complex I = molecular target: T3, mouse complex I (Mus musculus, UniProt P03888+Q91WD5+Q9DC70); test: Extent of inhibition of isolated IACS-2858-bound mouse complex I prepared for cryo-EM; details: isolated inhibitor-bound enzyme after size exclusion, initial rate versus control without inhibitor; cryo-EM sample
# T3 construct: from tissue; host or cells: mouse (C57BL/6) heart mitochondria
# Procedure: Complex I inhibited by IACS-2858 was prepared by a method adapted from that of Bridges et al. ([23]) for preparing mouse complex I inhibited by piericidin A1. C57BL/6 mice were euthanized by cervical dislocation in accord with the UK Animals (Scientific Procedures) Act 1986 (PPL: P6C97520A, approved by the local ethics committee and the UK Home Office), and mitochondrial membranes were prepared from heart tissue as described previously ([20]). Starting from membranes containing ~40 mg of total protein, the proteins were solubilized from the membranes by addition of 1% DDM (Glycon), and the mixture was centrifuged. […] The level of inhibition achieved was determined by comparing the initial rates of catalysis by the control and inhibited samples in buffer containing 20 mM tris-HCl (pH 7.5 at 32°C), 0.15% soy bean asolectin (Avanti Polar Lipids), and 0.15% CHAPS (Merck Chemicals Ltd.), using 200 μM dQ, with catalysis initiated by 200 μM NADH and monitored at 340 to 380 nm (ε = 4.81 mM^−1 cm^−1). […] The concentration of the peak fraction for the inhibited protein, eluting at ~1.65 ml, was estimated using a NanoDrop ultraviolet-visible spectrophotometer [ε280 = 0.2 (mg ml^−1)^−1], and the level of inhibition of the final eluted IACS-2858–treated sample was determined as above. […]
smiles,measurement,setting,value
"CS(=O)(=O)C1CCN(c2cccc(Cn3cc(-c4nc(-c5ccc(OC(F)(F)F)cc5)no4)ccc3=O)c2)CC1 [IACS-2858, 1-(3-(4-(Methylsulfonyl)piperidin-1-yl)benzyl)-5-(3-(4-(trifluoromethoxy)phenyl)-1,2,4-oxadiazol-5-yl)pyridin-2(1H)-one]",IC50,[1],0.0014 ± 0.0001 µM
same,IC50,[2],~7.2 µM
same,extent of inhibition,mouse complex I,81 ± 5% and 81.3 ± 4.7%
